Test results published in the CheMixHub viscosity set.
± gives the uncertainty stated by the source.

Assay: xn = mol fraction of the nth substance listed

CCCCCCCCCCCCCC[P+](CCCCCC)(CCCCCC)CCCCCC.c1nnc[n-]1 + COCCOCCOCCOCCOC
viscosity [mPa·s], 100 kPa
Settings | x1 = 0.418 | x1 = 0.516 | x1 = 0.61 | x1 = 0.694 | x1 = 0.751 | x1 = 0.804 | x1 = 0.874 | x1 = 0.954
293.15 K | 66 ± 1 | 111 ± 2 | 167 ± 5 | 272 ± 10 | 360 ± 15 | 508 ± 25 | 679 ± 37 | 994 ± 62
298.15 K | 53 ± 1 | 88 ± 1 | 128 ± 3 | 208 ± 7 | 269 ± 10 | 374 ± 16 | 491 ± 24 | 706 ± 39
303.15 K | – | 70 ± 1 | 101 ± 2 | 162 ± 4 | 205 ± 6 | 281 ± 10 | 364 ± 15 | 512 ± 25
308.15 K | – | 57 ± 1 | 81 ± 1 | 129 ± 3 | 160 ± 4 | 217 ± 7 | 275 ± 10 | 382 ± 16
313.15 K | – | – | 66 ± 1 | 104 ± 2 | 126 ± 3 | 169 ± 5 | 212 ± 7 | 289 ± 11
318.15 K | – | – | 54 ± 1 | 86 ± 1 | 102 ± 2 | 135 ± 3 | 166 ± 4 | 223 ± 7
323.15 K | – | – | – | 71 ± 1 | 83 ± 1 | 109 ± 2 | 133 ± 3 | 176 ± 5

CCCCCCO + CC#N
viscosity [mPa·s], 101 kPa
Settings | 298.15 K | 303.15 K | 308.15 K
x2 = 0.1095 | 3.187 ± 0.28 | 2.576 ± 0.23 | 2.165 ± 0.19
x2 = 0.2173 | 2.358 ± 0.21 | 2.078 ± 0.18 | 1.839 ± 0.17
x2 = 0.2885 | 1.966 ± 0.17 | 1.831 ± 0.16 | 1.573 ± 0.14
x2 = 0.3844 | 1.55 ± 0.14 | 1.386 ± 0.13 | 1.233 ± 0.12
x2 = 0.5121 | 1.109 ± 0.11 | 1.004 ± 0.096 | 0.913 ± 0.088
x2 = 0.627 | 0.84 ± 0.082 | 0.766 ± 0.076 | 0.704 ± 0.071
x2 = 0.7147 | 0.676 ± 0.069 | 0.611 ± 0.063 | 0.57 ± 0.06
x2 = 0.7903 | 0.545 ± 0.058 | 0.513 ± 0.055 | 0.483 ± 0.052
x2 = 0.8533 | 0.47 ± 0.051 | 0.445 ± 0.049 | 0.419 ± 0.047
x2 = 0.9086 | 0.415 ± 0.047 | 0.395 ± 0.045 | 0.376 ± 0.044
x2 = 0.9558 | 0.377 ± 0.044 | 0.36 ± 0.042 | 0.343 ± 0.041

O=C1CCCCC1 + CS(C)=O
303.15 K, 101 kPa
Settings | viscosity [mPa·s]
x2 = 0.099 | 1.721 ± 0.019
x2 = 0.1791 | 1.669 ± 0.017
x2 = 0.2687 | 1.649 ± 0.016
x2 = 0.3683 | 1.648 ± 0.015
x2 = 0.4653 | 1.657 ± 0.015
x2 = 0.5628 | 1.675 ± 0.014
x2 = 0.6679 | 1.698 ± 0.013
x2 = 0.7877 | 1.725 ± 0.012
x2 = 0.8903 | 1.755 ± 0.012

CC(=O)CC(C)C + CCCCOC(C)=O
298.15 K, 101.33 kPa
Settings | viscosity [mPa·s]
x1 = 0.128 | 0.66 ± 0.007
x1 = 0.2471 | 0.643 ± 0.007
x1 = 0.3594 | 0.628 ± 0.006
x1 = 0.4715 | 0.612 ± 0.006
x1 = 0.5881 | 0.595 ± 0.006
x1 = 0.6863 | 0.583 ± 0.006
x1 = 0.7901 | 0.57 ± 0.006
x1 = 0.8902 | 0.556 ± 0.006

O=C1CCCCC1 + COCCO
298.15 K, 101 kPa
Settings | viscosity [mPa·s]
x1 = 0.0793 | 1.432 ± 0.035
x1 = 0.1624 | 1.369 ± 0.032
x1 = 0.2494 | 1.33 ± 0.029
x1 = 0.3408 | 1.325 ± 0.026
x1 = 0.4367 | 1.33 ± 0.024
x1 = 0.5377 | 1.354 ± 0.022
x1 = 0.644 | 1.402 ± 0.02
x1 = 0.7562 | 1.504 ± 0.019
x1 = 0.8746 | 1.665 ± 0.018

CCCCCCCCCCCCCC[P+](CCCCCC)(CCCCCC)CCCCCC.c1nnc[n-]1 + O
Settings | viscosity [mPa·s]
298.15 K, 100 kPa, x2 = 0.7956 | 114 ± 3

C[NH+]1CCCC1=O.Cc1ccc(S(=O)(=O)[O-])cc1 + O
viscosity [mPa·s], 100 kPa
Settings | x1 = 0.00179 | x1 = 0.003588 | x1 = 0.005313 | x1 = 0.008042 | x1 = 0.01069 | x1 = 0.01417 | x1 = 0.02116 | x1 = 0.02631 | x1 = 0.03141
293.15 K | 1.079 ± 0.012 | 1.149 ± 0.013 | 1.212 ± 0.014 | 1.311 ± 0.015 | 1.404 ± 0.016 | 1.533 ± 0.018 | 1.806 ± 0.021 | 2.029 ± 0.023 | 2.274 ± 0.026
298.15 K | 0.9575 ± 0.011 | – | 1.073 ± 0.012 | 1.157 ± 0.013 | – | 1.358 ± 0.016 | – | 1.819 ± 0.021 | 2.048 ± 0.024
303.15 K | 0.8523 ± 0.0099 | 0.9062 ± 0.01 | 0.9554 ± 0.011 | – | – | 1.201 ± 0.014 | 1.42 ± 0.016 | 1.611 ± 0.019 | 1.827 ± 0.021
308.15 K | 0.7695 ± 0.0089 | 0.8124 ± 0.0094 | 0.8523 ± 0.0099 | 0.9156 ± 0.011 | 0.9784 ± 0.011 | – | – | 1.444 ± 0.017 | 1.64 ± 0.019

O=C1CCCCC1 + C1CCCCC1
Settings | viscosity [mPa·s]
298.15 K, 101.3 kPa, x2 = 0.4895 | 1.275 ± 0.02
303.15 K, 101 kPa, x2 = 0.1065 | 1.596 ± 0.019
303.15 K, 101 kPa, x2 = 0.2078 | 1.451 ± 0.017
303.15 K, 101 kPa, x2 = 0.3013 | 1.32 ± 0.015
303.15 K, 101 kPa, x2 = 0.3971 | 1.214 ± 0.014
303.15 K, 101 kPa, x2 = 0.5022 | 1.102 ± 0.013
303.15 K, 101 kPa, x2 = 0.604 | 1.027 ± 0.012
303.15 K, 101 kPa, x2 = 0.7024 | 0.9614 ± 0.011
303.15 K, 101 kPa, x2 = 0.8086 | 0.8788 ± 0.01
303.15 K, 101 kPa, x2 = 0.8742 | 0.8504 ± 0.01
303.15 K, 101 kPa, x2 = 0.9034 | 0.8387 ± 0.0099

OCCOCCOCCOCCOCCOCCOCCOCCO + O
viscosity [mPa·s], 100 kPa
Settings | 293.15 K | 298.15 K | 303.15 K | 308.15 K | 313.15 K | 318.15 K | 323.15 K
x2 = 0.042 | 108.4 ± 4.3 | 81.84 ± 2.2 | 63.33 ± 1.5 | 50.05 ± 0.84 | 40.2 ± 0.6 | 32.83 ± 0.43 | 27.17 ± 0.32
x2 = 0.111 | 107.4 ± 4.3 | 81.02 ± 2.2 | 62.63 ± 1.5 | 49.38 ± 0.9 | 39.67 ± 0.59 | 32.32 ± 0.43 | 26.74 ± 0.32
x2 = 0.267 | 103 ± 6.1 | 77.64 ± 6.1 | 60.34 ± 4.7 | 47.5 ± 3.5 | 38.03 ± 2.7 | 30.97 ± 2 | 25.55 ± 1.6
x2 = 0.294 | 98.4 ± 6.3 | 74.46 ± 2.1 | 57.33 ± 2 | 45.14 ± 1.6 | 36.19 ± 1.3 | 29.5 ± 1.1 | 24.36 ± 0.89

CCOCC + O
298.15 K, 101 kPa
Settings | viscosity [mPa·s]
x1 = 0.00334 | 0.9366 ± 0.0045
x1 = 0.00369 | 1.053 ± 0.009
x1 = 0.00509 | 0.9597 ± 0.0045
x1 = 0.00551 | 1.073 ± 0.009
x1 = 0.00769 | 0.9959 ± 0.0046
x1 = 0.00866 | 1.107 ± 0.01
x1 = 0.00871 | 1.01 ± 0.0046
x1 = 0.0107 | 1.132 ± 0.01
x1 = 0.0113 | 1.138 ± 0.01
x1 = 0.0149 | 1.088 ± 0.0046
x1 = 0.973 | 0.27 ± 0.007
x2 = 0.0179 | 0.269 ± 0.007

O=C1CCCCC1 + CC(C)CO
298.15 K, 101 kPa
Settings | viscosity [mPa·s]
x1 = 0.1012 | 2.58 ± 0.03
x1 = 0.2016 | 2.15 ± 0.03
x1 = 0.299 | 1.9 ± 0.02
x1 = 0.3994 | 1.77 ± 0.02
x1 = 0.5008 | 1.72 ± 0.02
x1 = 0.5978 | 1.7 ± 0.02
x1 = 0.6982 | 1.69 ± 0.02
x1 = 0.7981 | 1.71 ± 0.02
x1 = 0.8985 | 1.77 ± 0.02

CCCCCCO + CCCCCCCCCCCC
298.15 K, 101 kPa
Settings | viscosity [mPa·s]
x2 = 0.0555 | 3.93 ± 0.07
x2 = 0.0999 | 3.52 ± 0.06
x2 = 0.1555 | 3.06 ± 0.06
x2 = 0.1999 | 2.74 ± 0.06
x2 = 0.2554 | 2.38 ± 0.06
x2 = 0.2999 | 2.12 ± 0.06
x2 = 0.3555 | 1.85 ± 0.06
x2 = 0.3998 | 1.66 ± 0.06
x2 = 0.4555 | 1.47 ± 0.06
x2 = 0.4999 | 1.34 ± 0.06
x2 = 0.5554 | 1.21 ± 0.06
x2 = 0.5998 | 1.14 ± 0.06
x2 = 0.6554 | 1.07 ± 0.06
x2 = 0.6999 | 1.04 ± 0.06
x2 = 0.7555 | 1.02 ± 0.06
x2 = 0.7997 | 1.03 ± 0.06
x2 = 0.8555 | 1.06 ± 0.06
x2 = 0.8998 | 1.09 ± 0.06
x2 = 0.9555 | 1.15 ± 0.06
